Test results: US20260297095A1, “NOVEL PYRROLOTRIAZINE DERIVATIVE AND USE THEREOF” (Pelemed Co., Ltd., priority 2024, published 2026)

Columns and labels:
YES1 kinase = YES1 kinase (Homo sapiens, UniProt P07947); assay: YES1 kinase inhibition, ADP Glo assay (Promega); assay type: biochemical; settings: for IC50: class symbols, read-out: YES1 enzyme, IC50; for inhibition at 0.01 µM: compound 10 nM, read-out: YES1 enzyme, % inhibition, 10 nM; for inhibition at 0.1 µM: compound 100 nM, read-out: YES1 enzyme, % inhibition, 100 nM
Sequence of YES1 kinase (P07947 whole entry): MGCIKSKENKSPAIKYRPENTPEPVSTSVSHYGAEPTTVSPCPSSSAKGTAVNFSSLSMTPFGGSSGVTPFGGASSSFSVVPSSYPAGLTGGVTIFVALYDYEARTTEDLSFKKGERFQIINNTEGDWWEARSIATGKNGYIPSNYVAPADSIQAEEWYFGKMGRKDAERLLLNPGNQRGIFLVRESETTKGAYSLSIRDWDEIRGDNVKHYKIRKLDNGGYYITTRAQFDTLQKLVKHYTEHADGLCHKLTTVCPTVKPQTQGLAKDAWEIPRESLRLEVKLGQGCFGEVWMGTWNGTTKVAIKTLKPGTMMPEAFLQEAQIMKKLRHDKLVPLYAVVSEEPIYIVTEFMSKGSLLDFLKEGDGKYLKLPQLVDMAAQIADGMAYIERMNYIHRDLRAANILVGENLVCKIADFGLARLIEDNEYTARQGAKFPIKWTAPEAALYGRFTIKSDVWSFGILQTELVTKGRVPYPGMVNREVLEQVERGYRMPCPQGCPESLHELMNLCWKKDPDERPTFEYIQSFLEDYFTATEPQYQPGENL
Description: To evaluate the inhibitory activity against YES1 kinase of the compound according to the present invention, ADP Glo assay (Promega) was used, and the following method was performed with reference to the Promega kinase enzyme system protocol. To proceed with the experiment, buffers A-F and compound dilution plates were required.
To prepare A.4X reaction buffer, 800 μl of 5X reaction buffer and 200 μl of distilled water were used. To prepare B.4X kinase buffer, 996.6 μl of A.4X reaction buffer, 2 μl of 0.1M DTT, and 3.2 μl of 2.5M MnCl2 were added and mixed. To prepare C.1X kinase buffer (containing 5% DMSO) used for compound dilution, 250 μl of B.4X kinase buffer, 700 μl of distilled water, and 50 μl of DMSO were added, so that the final DMSO concentration became 5%. Then, 10 mM compounds were diluted 100-fold to prepare 100 μM solutions, and then D.5X inhibitor solution was prepared so that the compound concentration became 5 uM. Using a 96-well plate, 5 μM compounds were 3-fold diluted using C.1X kinase buffer (containing 5% DMSO) to prepare compound plates with concentrations ranging from 0.25 μM to 5 μM. The resulting plates were stored at room temperature. To prepare E. 2.5X ATP/substrate mixture, 50 μl of B.4X kinase buffer, 50 μl of […], and 100 μl of substrate were mixed. To prepare F YES1 kinase enzyme solution, 35 μl of B.4X kinase buffer, 0.4 μl of YES1 enzyme, and 104.6 μl of distilled water were used. Once the diluted compound plates, ATP/substrate mixture, and YES1 kinase solution were all prepared, 3 μL each was transferred from the diluted compound plate to a luciferase 96-well white plate (Since the total volume of the ATP/substrate and YES1 kinase solution that reacts with the compound is 15 μL, the compounds were diluted 5-fold, making the final compound concentration 0.05 μM-1 μM). Then, 6 μL of F. YES1 Kinase Enzyme Solution was transferred to each well, pipetted 10 times to mix, and incubated at room temperature in a shaker for 10 minutes. Next, 6 μL of E. 2.5X ATP/Substrate Mixture was transferred to each well, pipetted 10 times to mix, and centrifuged at 12,000 rpm for 5 minutes. The plate was then incubated in a shaker at room temperature for 40 minutes. After that, 15 μL of ADP-Glo Reagent, dissolved at room temperature, was added to each well, pipetted 10 times, and incubated in a shaker at room temperature for 40 minutes. Finally, 30 μL of Kinase Detection Reagent, dissolved at room temperature, was added, pipetted 10 times, incubated in a shaker at room temperature for 30 minutes. Luminescence was measured using a luminescence plate reader. Then, the background value was subtracted from all measured values, and the YES1 kinase activity at compound concentrations of 1 nM, 10 nM, and 100 nM was calculated. The measured values were calculated as percentages using the average value of the negative control. Graphs were drawn using GraphPad Prism, and the enzyme activity was calculated as a percentage of YES1 kinase inhibition at compound concentrations of 1 nM, 10 nM, and 100 nM. IC50 values were obtained using Microsoft Excel.

[1] = test system: KYSE-70 esophageal cancer cell line; assay: Cell growth inhibition of KYSE-70 (Sulforhodamine B); assay type: cell-based; settings: Homo sapiens; KYSE-70, 72 hours; read-out: KYSE70 GI50
Description: The cell line according to the present invention was selected as KYSE-70, an esophageal cancer cell line in which YES1 is amplified. The evaluation of cell growth inhibition was performed as follows.
KYSE-70 was cultured in RPMI-1640 (Capricorn) supplemented with 10% FBS (Cellgro). The cells were seeded 24 hours prior to compound treatment, into three 96-well F-bottom clear plates (Greiner), with 7,500 cells per well in 180 μL of medium. The 10 mM compound was diluted 100-fold in medium to prepare a 100 μM compound, which was then placed into a 96-well plate and further 3-fold diluted in medium to prepare a compound plate with concentrations ranging from 0.046 μM to 100 μM. 20 μL of each compound from the drug plate was added to the cell-seeded plates to achieve final concentrations of 0.0046 μM to 10 μM. At the same time, 50 μL of 33% trichloroacetic acid was injected into one plate and the plate was fixed by incubating at 4° C. This was referred to as the Do plate. Viable cells were measured 72 hours after compound treatment by injecting 50 μL of 33% trichloroacetic acid and incubating at 4° C. for more than 1 hour to fix the cells. This was referred to as the D3 plate. After the Do plate and D3 plates were washed 5 times with sterile water, 100 μL of 0.04% Sulforhodamine B solution in 1% acetic acid was added and reacted for 1 hour to stain the cells. After staining, the plates were washed 4 times with 1% acetic acid solution and completely dried. Then, the Sulforhodamine B bound to cellular proteins was completely dissolved with 10 mM Tris base solution (pH 10.5). The absorbance was measured at a wavelength of 510 nm using a microplate reader (TECAN, sunrise microplate reader). The analysis was performed using GraphPad Prism. The average absorbance of the Do plate was set to 0%, and the average absorbance of the negative control of the D3 plate was set to 100%, from which a graph was drawn and the GI50 values were calculated. Each test was performed twice.

Row | SMILES | GI50 [1] [nM] | also measured
1 | CNC1(C)CCN(c2cc(-c3ccc(NC(=O)OC(C)(C)C)c(OC)c3)c3c(N)ncnn23)CC1 [Example 105, tert-butyl (4-(4-amino-7-(4-methyl-4-(methylamino)piperidin-1-yl)pyrrolo[2,1-f][1,2,4]triazin-5-yl)-2-methoxyphenyl)carbamate] | ≤ 100 | IC50 (YES1 kinase): ≤ 100 nM
2 | CCNC1CCN(c2cc(-c3ccc(NC(=O)OC(C)(C)C)c(OC)c3)c3c(N)ncnn23)CC1 [Example 92, tert-butyl (4-(4-amino-7-(4-(ethylamino)piperidin-1-yl)pyrrolo[2,1-f][1,2,4]triazin-5-yl)-2-methoxyphenyl)carbamate] | 100 to 1000 | IC50 (YES1 kinase): ≤ 100 nM; inhibition at 0.01 µM (YES1 kinase): 66%; inhibition at 0.1 µM (YES1 kinase): 81%
3 | COc1cc(-c2cc(N3CCC(N)CC3)n3ncnc(N)c23)ccc1NC(=O)c1ccoc1 [Example 138, N-(4-(4-amino-7-(4-aminopiperidin-1-yl)pyrrolo[2,1-f][1,2,4]triazin-5-yl)-2-methoxyphenyl)furan-3-carboxamide] | > 10000 | IC50 (YES1 kinase): ≤ 100 nM
4 | COc1cc(-c2cc(-c3ccc(N(C)C)c(C)c3)n3ncnc(N)c23)ccc1NC(=O)OC(C)(C)C [Example 3, tert-butyl (4-(4-amino-7-(4-(dimethylamino)-3-methylphenyl)pyrrolo[2,1-f][1,2,4]triazin-5-yl)-2-methoxyphenyl)carbamate] | > 10000 | inhibition at 0.01 µM (YES1 kinase): 44%; inhibition at 0.1 µM (YES1 kinase): 49%
5 | COc1cc(-c2cc(N3CCC(N)C4(CC4)C3)n3ncnc(N)c23)ccc1NC(=O)OC(C)(C)C (centres unmarked) [Example 80, tert-butyl (4-(4-amino-7-(8-amino-5-azaspiro[2.5]octan-5-yl)pyrrolo[2,1-f][1,2,4]triazin-5-yl)-2-methoxyphenyl)carbamate] | 100 to 1000 | 
6 | COc1cc(-c2c(C)c(N3CCC(N(C)C)CC3)n3ncnc(N)c23)ccc1NC(=O)OC(C)(C)C [Example 76, tert-butyl (4-(4-amino-7-(4-(dimethylamino)piperidin-1-yl)-6-methylpyrrolo[2,1-f][1,2,4]triazin-5-yl)-2-methoxyphenyl)carbamate] | ≤ 100 | 
7 | CNCCC1CCN(c2c(C)c(-c3ccc(NC(=O)OC(C)(C)CF)c(OC)c3)c3c(N)ncnn23)CC1 [Example 63, 1-fluoro-2-methylpropan-2-yl (4-(4-amino-6-methyl-7-(4-(2-(methylamino)ethyl)piperidin-1-yl)pyrrolo[2,1-f][1,2,4]triazin-5-yl)-2-methoxyphenyl)carbamate] | ≤ 100 | 
8 | COc1cc(-c2cc(N3CCC(C(C)N)CC3)n3ncnc(N)c23)ccc1NC(=O)OC(C)(C)C (centres unmarked) [Example 81, tert-butyl (4-(4-amino-7-(4-(1-aminoethyl)piperidin-1-yl)pyrrolo[2,1-f][1,2,4]triazin-5-yl)-2-methoxyphenyl)carbamate] | 100 to 1000 | 
9 | COc1cc(-c2cc(CCN3CCC(N(C)C)CC3)n3ncnc(N)c23)ccc1NC(=O)OC(C)(C)CF [Example 69, 1-fluoro-2-methylpropan-2-yl (4-(4-amino-7-(2-(4-(dimethylamino)piperidin-1-yl)ethyl)pyrrolo[2,1-f][1,2,4]triazin-5-yl)-2-methoxyphenyl)carbamate] | ≤ 100 | 
10 | COc1cc(-c2cc(NC[C@H]3CC[C@@H](N)C3)n3ncnc(N)c23)ccc1NC(=O)OC(C)(C)C [Example 110, tert-butyl (4-(4-amino-7-((((1S,3R)-3-aminocyclopentyl)methyl)amino)pyrrolo[2,1-f][1,2,4]triazin-5-yl)-2-methoxyphenyl)carbamate] | 100 to 1000 | 
11 | CCC1(N)CCN(c2cc(-c3ccc(NC(=O)OC(C)(C)C)c(OC)c3)c3c(N)ncnn23)CC1 [Example 82, tert-butyl (4-(4-amino-7-(4-amino-4-ethylpiperidin-1-yl)pyrrolo[2,1-f][1,2,4]triazin-5-yl)-2-methoxyphenyl)carbamate] | ≤ 100 | 
12 | CNCCC1CCN(c2c(C)c(-c3ccc(NC(=O)OC(C)(C)C)c(OC)c3)c3c(N)ncnn23)CC1 [Example 77, tert-butyl (4-(4-amino-6-methyl-7-(4-(2-(methylamino)ethyl)piperidin-1-yl)pyrrolo[2,1-f][1,2,4]triazin-5-yl)-2-methoxyphenyl)carbamate] | 100 to 1000 | 
13 | CNC(=O)C1CCN(c2cc(-c3ccc(NC(=O)OC(C)(C)C)c(OC)c3)c3c(N)ncnn23)CC1 [Example 95, tert-butyl (4-(4-amino-7-(4-(methylcarbamoyl)piperidin-1-yl)pyrrolo[2,1-f][1,2,4]triazin-5-yl)-2-methoxyphenyl)carbamate] | 100 to 1000 | 
14 | COc1cc(-c2c(C(F)(F)F)c(N3CCC(N)CC3)n3ncnc(N)c23)ccc1NC(=O)OC(C)(C)C [Example 125, tert-butyl (4-(4-amino-7-(4-aminopiperidin-1-yl)-6-(trifluoromethyl)pyrrolo[2,1-f][1,2,4]triazin-5-yl)-2-methoxyphenyl)carbamate] | 100 to 1000 | 
15 | CC1(OC(=O)Nc2ccc(-c3cc(N4CCC(N)CC4)n4ncnc(N)c34)c3c2OCO3)CC1 [Example 70, 1-methylcyclopropyl (7-(4-amino-7-(4-aminopiperidin-1-yl)pyrrolo[2,1-f][1,2,4]triazin-5-yl)benzo[d][1,3]dioxol-4-yl)carbamate] | 100 to 1000 | 
16 | COc1cc(-c2cc(CCN3CCC(N)CC3)n3ncnc(N)c23)ccc1NC(=O)OC(C)(C)CF [Example 68, 1-fluoro-2-methylpropan-2-yl (4-(4-amino-7-(2-(4-aminopiperidin-1-yl)ethyl)pyrrolo[2,1-f][1,2,4]triazin-5-yl)-2-methoxyphenyl)carbamate] | ≤ 100 | 
17 | CNC1CCN(c2cc(-c3ccc(NC(=O)OC(C)(C)C)c(OC)c3)c3c(N)nccn23)CC1 [Example 133, tert-butyl (4-(1-amino-6-(4-(methylamino)piperidin-1-yl)pyrrolo[1,2-a]pyrazin-8-yl)-2-methoxyphenyl)carbamate] | 100 to 1000 | 
18 | COc1cc(-c2c(C)c(N3CCC(N)CC3)n3ncnc(N)c23)ccc1NC(=O)OC(C)(C)CF [Example 60, 1-fluoro-2-methylpropan-2-yl (4-(4-amino-7-(4-aminopiperidin-1-yl)-6-methylpyrrolo[2,1-f][1,2,4]triazin-5-yl)-2-methoxyphenyl)carbamate] | ≤ 100 | 
19 | COc1cc(-c2cc(N3CCC(N(C)C)CC3)n3ccnc(N)c23)ccc1NC(=O)OC(C)(C)C [Example 134, tert-butyl (4-(1-amino-6-(4-(dimethylamino)piperidin-1-yl)pyrrolo[1,2-a]pyrazin-8-yl)-2-methoxyphenyl)carbamate] | ≤ 100 | 
